Experimental data taken from patent US20230301300A1, “HERBICIDAL COMPOSITIONS” (SYNGENTA CROP PROTECTION AG, priority 2020, published 2023).

Assays:
Type in all cases: in vivo
Lolium perenne (LOLPE) = assay: B1 Post-Emergence Efficacy - Test 1; conditions: 1000 g/ha, after 13 days, five point scale
Protocol: (§1) Seeds of a variety of test species are sown in standard soil in pots:— Solanum nigrum (SOLNI), Amaranthus retoflexus (AMARE), Setaria faberi (SETFA), Alopecurus myosuroides (ALOMY), Echinochloa crus-galli (ECHCG), Ipomoea hederacea (IPOHE), Lolium perenne (LOLPE). After 8 days cultivation (post-emergence) under controlled conditions in a glasshouse (at 24/16° C., day/night; 14 hours light; 65% humidity), the plants are sprayed with an aqueous spray solution derived from the formulation of the technical active ingredient in acetone/water (50:50) solution containing 0.5% Tween 20 (polyoxyethylene sorbitan monolaurate, CAS RN 9005-64-5). Compounds are applied at 1000 g/ha. The test plants are then grown in a glasshouse under controlled conditions in a glasshouse (at 24/16° C., day/night; 14 hours light; 65% humidity) and watered twice daily. After 13 days, the test is evaluated for the percentage damage caused to the plant. The biological activities are assessed on a five point scale (5=80-100%; 4=60-79%; 3=40-59%; 2=20-39%; 1=0-19%). A blank value in the table is indicative that the compound was not tested on that species.

Setaria faberi (SETFA) [1] = assay: B1 Post-Emergence Efficacy - Test 1; conditions: 1000 g/ha, after 13 days, five point scale
Protocol: as §1

[2] = test system: Amaranthus retoflexus (AMARE); assay: B1 Post-Emergence Efficacy - Test 1; conditions: 1000 g/ha, after 13 days, five point scale
Protocol: as §1

[3] = test system: Ipomoea hederacea (IPOHE); assay: B1 Post-Emergence Efficacy - Test 1; conditions: 1000 g/ha, after 13 days, five point scale
Protocol: as §1

Solanum nigrum (SOLNI) = assay: B1 Post-Emergence Efficacy - Test 1; conditions: 1000 g/ha, after 13 days, five point scale
Protocol: as §1

[4] = test system: Echinochloa crus-galli (ECHCG); assay: B1 Post-Emergence Efficacy - Test 1; conditions: 1000 g/ha, after 13 days, five point scale
Protocol: as §1

[5] = test system: Amaranthus retroflexus (AMARE); assay: B3 Herbicidal Efficacy of Compounds of Formula (II), pre-emergence; conditions: 312 h, application pre-emergence, after 13 days, 100=total damage, 0=no damage, read-out: percentage phytotoxicity to the plant, AMARE
Protocol: (§2) Seeds of a variety of test species [Ipomoea hederacea (IPOHE); Zea mays (ZEAMX); Echinochloa crus-galli (ECHCG); Setaria faberi (SETFA); Abutilon theophrasti (ABUTH); Amaranthus retroflexus (AMARE)] were sown in standard sterilised soil in pots. After cultivation for one day (pre-emergence) or after 8 days cultivation (post-emergence) under controlled conditions in a glasshouse (at 24/16° C., day/night; 14 hours light; 65% humidity), the plants were sprayed with an aqueous spray solution derived from the formulation of the technical active ingredient in acetone/water (50:50) solution containing 0.5% Tween 20 (polyoxyethelyene sorbitan monolaurate, CAS RN 9005-64-5), subsequently diluted in water, and sprayed to give the stated application rate. The test plants were then grown under controlled conditions in a glasshouse (at 24/16° C., day/night; 14 hours light; 65% humidity) and watered twice daily. After 13 days for pre and post-emergence, the test was evaluated visually for percentage phytotoxicity to the plant (where 100=total damage to plant; 0=no damage to plant).

Setaria faberi (SETFA) [6] = assay: as above; conditions: 312 h, application pre-emergence, after 13 days, 100=total damage, 0=no damage, read-out: percentage phytotoxicity to the plant, SETFA
Protocol: as §2

Zea mays (ZEAMX) [7] = assay: as above; conditions: 312 h, application pre-emergence, after 13 days, 100=total damage, 0=no damage, read-out: percentage phytotoxicity to the plant, ZEAMX
Protocol: as §2

[8] = test system: Abutilon theophrasti (ABUTH); assay: as above; conditions: 312 h, application pre-emergence, after 13 days, 100=total damage, 0=no damage, read-out: percentage phytotoxicity to the plant, ABUTH
Protocol: as §2

[9] = test system: Ipomoea hederacea (IPOHE); assay: as above; conditions: 312 h, application pre-emergence, after 13 days, 100=total damage, 0=no damage, read-out: percentage phytotoxicity to the plant, IPOHE
Protocol: as §2

[10] = test system: Echinochloa crus-galli (ECHCG); assay: as above; conditions: 312 h, application pre-emergence, after 13 days, 100=total damage, 0=no damage, read-out: percentage phytotoxicity to the plant, ECHCG
Protocol: as §2

[11] = test system: Amaranthus retroflexus (AMARE); assay: B3 Herbicidal Efficacy of Compounds of Formula (II), post-emergence; conditions: 312 h, application post-emergence, after 13 days, 100=total damage, 0=no damage, read-out: percentage phytotoxicity to the plant, AMARE
Protocol: as §2

Setaria faberi (SETFA) [12] = assay: as above; conditions: 312 h, application post-emergence, after 13 days, 100=total damage, 0=no damage, read-out: percentage phytotoxicity to the plant, SETFA
Protocol: as §2

Zea mays (ZEAMX) [13] = assay: as above; conditions: 312 h, application post-emergence, after 13 days, 100=total damage, 0=no damage, read-out: percentage phytotoxicity to the plant, ZEAMX
Protocol: as §2

[14] = test system: Abutilon theophrasti (ABUTH); assay: as above; conditions: 312 h, application post-emergence, after 13 days, 100=total damage, 0=no damage, read-out: percentage phytotoxicity to the plant, ABUTH
Protocol: as §2

[15] = test system: Ipomoea hederacea (IPOHE); assay: as above; conditions: 312 h, application post-emergence, after 13 days, 100=total damage, 0=no damage, read-out: percentage phytotoxicity to the plant, IPOHE
Protocol: as §2

[16] = test system: Echinochloa crus-galli (ECHCG); assay: as above; conditions: 312 h, application post-emergence, after 13 days, 100=total damage, 0=no damage, read-out: percentage phytotoxicity to the plant, ECHCG
Protocol: as §2

Row | SMILES | percentage damage caused to the plant, LOLPE (Lolium perenne (LOLPE)) | percentage damage caused to the plant, SETFA (Setaria faberi (SETFA) [1]) | percentage damage caused to the plant, AMARE [2] | percentage damage caused to the plant, IPOHE [3] | percentage damage caused to the plant, SOLNI (Solanum nigrum (SOLNI)) | percentage damage caused to the plant, ECHCG [4] | pest or weed control at 250 g/ha [5] [%] | pest or weed control at 250 g/ha (Setaria faberi (SETFA) [6]) [%] | plant injury at 250 g/ha (Zea mays (ZEAMX) [7]) [%] | pest or weed control at 250 g/ha [8] [%] | pest or weed control at 250 g/ha [9] [%] | pest or weed control at 250 g/ha [10] [%] | pest or weed control at 250 g/ha [11] [%] | pest or weed control at 250 g/ha (Setaria faberi (SETFA) [12]) [%] | percent crop injury (phytotoxicity to maize) at 250 g/ha (Zea mays (ZEAMX) [13]) [%] | pest or weed control at 250 g/ha [14] [%] | pest or weed control at 250 g/ha [15] [%] | pest or weed control at 250 g/ha [16] [%]
1 | Cc1nn(C)c(=O)c(-c2c(F)ccc(Cl)c2CCc2ccccc2)c1O [Compound 1.001, 4-(3-chloro-6-fluoro-2-phenethyl-phenyl)-5-hydroxy-2,6-dimethyl-pyridazin-3-one] | 5 (5=80-100%) | 5 (5=80-100%) | 5 (5=80-100%) | 5 (5=80-100%) | 5 (5=80-100%) | 5 (5=80-100%) |  |  |  |  |  |  |  |  |  |  |  | 
2 | Cc1nn(C)c(=O)c(-c2c(F)ccc(Cl)c2/C=C/c2ccccc2)c1O [Compound 1.002, 4-[3-chloro-6-fluoro-2-[(E)-styryl]phenyl]-5-hydroxy-2,6-dimethyl-pyridazin-3-one] | 4 (4=60-79%) | 3 (3=40-59%) | 4 (4=60-79%) | 5 (5=80-100%) | 5 (5=80-100%) | 4 (4=60-79%) |  |  |  |  |  |  |  |  |  |  |  | 
3 | Cc1nn(C)c(=O)c(-c2c(F)ccc(Cl)c2CCc2ccc(Cl)cc2)c1O [Compound 1.012, 4-[3-chloro-2-[2-(4-chlorophenyl)ethyl]-6-fluoro-phenyl]-5-hydroxy-2,6-dimethyl-pyridazin-3-one] | 5 (5=80-100%) | 5 (5=80-100%) | 5 (5=80-100%) | 5 (5=80-100%) | 5 (5=80-100%) | 5 (5=80-100%) |  |  |  |  |  |  |  |  |  |  |  | 
4 | Cc1nn(C)c(=O)c(-c2c(F)ccc(Cl)c2CCc2ccc(C(F)(F)F)cc2)c1O [Compound 1.018, 4-[3-chloro-6-fluoro-2-[2-[4-(trifluoromethyl)phenyl]ethyl]phenyl]-5-hydroxy-2,6-dimethyl-pyridazin-3-one] | 5 (5=80-100%) | 5 (5=80-100%) | 5 (5=80-100%) | 5 (5=80-100%) | 5 (5=80-100%) | 5 (5=80-100%) |  |  |  |  |  |  |  |  |  |  |  | 
5 | Cc1nn(C)c(=O)c(-c2c(F)ccc(Cl)c2CCc2cccnc2)c1O [Compound 1.054, 4-[3-chloro-6-fluoro-2-[2-(3-pyridyl)ethyl]phenyl]-5-hydroxy-2,6-dimethyl-pyridazin-3-one] | 5 (5=80-100%) | 5 (5=80-100%) | 5 (5=80-100%) | 5 (5=80-100%) | 5 (5=80-100%) | 5 (5=80-100%) |  |  |  |  |  |  |  |  |  |  |  | 
6 | Cc1nn(C)c(=O)c(-c2c(F)ccc(Cl)c2CCc2ccc(F)c(F)c2)c1O [Compound 1.060, 4-[3-chloro-2-[2-(3,4-difluorophenyl)ethyl]-6-fluoro-phenyl]-5-hydroxy-2,6-dimethyl-pyridazin-3-one] | 5 (5=80-100%) | 5 (5=80-100%) | 5 (5=80-100%) | 5 (5=80-100%) | 5 (5=80-100%) | 5 (5=80-100%) |  |  |  |  |  |  |  |  |  |  |  | 
7 | Cc1nn(C)c(=O)c(-c2c(F)ccc(Cl)c2CCc2ccc(C(F)(F)F)cc2)c1OC(=O)C(C)C [Compound 1.095, [5-[3-chloro-6-fluoro-2-[2-[4-(trifluoromethyl)phenyl]ethyl]phenyl]-1,3-dimethyl-6-oxo-pyridazin-4-yl] 2-methylpropanoate] | 5 (5=80-100%) |  | 5 (5=80-100%) | 5 (5=80-100%) | 5 (5=80-100%) | 5 (5=80-100%) |  |  |  |  |  |  |  |  |  |  |  | 
8 | Cc1ccc(CCc2c(Cl)ccc(F)c2-c2c(OC(=O)C(C)C)c(C)nn(C)c2=O)cc1 [Compound 1.149, [5-[3-chloro-6-fluoro-2-[2-(p-tolyl)ethyl]phenyl]-1,3-dimethyl-6-oxo-pyridazin-4-yl] 2-methylpropanoate] | 5 (5=80-100%) | 5 (5=80-100%) | 5 (5=80-100%) | 5 (5=80-100%) | 5 (5=80-100%) | 5 (5=80-100%) |  |  |  |  |  |  |  |  |  |  |  | 
9 | CN1C[C@H](c2cc(C(F)(F)F)n(C)n2)[C@@H](C(=O)Nc2cccc(F)c2C(C)(F)F)C1=O [Compound 2.12, (3S,4R)-N-[2-(1,1-difluoroethyl)-3-fluoro-phenyl]-1-methyl-4-[1-methyl-5-(trifluoromethyl)pyrazol-3-yl]-2-oxo-pyrrolidine-3-carboxamide] |  |  |  |  |  |  | 0 | 90 | 90 | 0 | 70 | 90 | 0 | 90 | 80 | 0 | 50 | 90
